From US10894037B2, “Inhibitors of bacterial two component signal transduction system and uses thereof” (priority 2017, dated 2021)

What was measured:
Assay type in all cases: binding
PmrA-DNA complex [1] = target: PmrA-DNA complex (Klebsiella pneumoniae, UniProt W9BNR5); assay: Fluorescence polarization (FP) assay of inhibition of PmrA-DNA complex formation
Description: (§1) Fluorescence Polarization (FP) Measurements
(§2) Compounds, E1-E5, were purchased from InterBioScreen (Moscow, Russia) (E1: STOCK1S-95047; E2: STOCK1N-13224; E3: STOCK1N-16691; E4: STOCK 1 S-43938; E5: STOCK1S-55283), and the purity are over 90% examined by NMR. The oligonucleotides (5′-[…]-3′, SEQ ID NO: 2) labeled with 6-carboxyfluorescein (6-FAM) at the 5′-position, was dissolved in 10 mM sodium phosphate and 15 mM NaCl pH 7.0 for fluorescence polarization experiments. About 10 μl activated PmrA (prepared in 10 mM sodium phosphate and 15 mM NaCl at pH7.0) was first added into the well of ELISA plate. Then, 1 μl of serial diluted inhibitors, E1-E5, (prepared in the sample buffer of activated PmrA) were mixed with the PmrA (final concentration Of 30 μM) to reach the interested concentrations and incubated at 25° C. for 10 mins. Subsequently, 9 μl of 6-FAM-labeled DNA (final concentration of 10 nM) was added into the reaction, incubating at 25° C. for another 10 mins. Reactions were measured 3 times by use of a SpectraMax Paradigm plate reader (Molecular Devices, CA, USA) with excitation wavelength 485 nm and emission wavelength 535 nm. The inhibition % was derived according to the following equation:
(§3) [formula] in which (D), (P+D), and (P+I+D) are the polarization intensity of DNA alone, PmrA with DNA, and PmrA mixed with inhibitor then incubated with DNA, respectively.
(§4) Fluorescence polarization (FP) was first employed to access the inhibitory abilities of E1-E5 against the formation of PmrA-DNA complex in accordance with procedures described in the section of “Materials and Methods.” Results are depicted in FIG. 1, panels E and F, and Table 1.

PmrA-DNA complex [2] = target: PmrA-DNA complex (Klebsiella pneumoniae, UniProt W9BNR5, I220D/W181G); assay: as above; conditions: read-out: inhibition of PmrA binding to DNA (PmrA-DNA complex formation)
PmrA-DNA complex (Klebsiella pneumoniae, UniProt W9BNR5, I220D/W181G), sequence (W9BNR5 whole entry I220D/W181G, one chain of several): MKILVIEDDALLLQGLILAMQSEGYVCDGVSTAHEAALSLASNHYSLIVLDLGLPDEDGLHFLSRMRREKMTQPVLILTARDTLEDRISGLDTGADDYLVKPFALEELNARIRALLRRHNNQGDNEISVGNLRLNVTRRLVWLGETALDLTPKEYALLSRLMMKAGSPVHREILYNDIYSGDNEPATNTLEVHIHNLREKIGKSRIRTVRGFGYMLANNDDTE
Description: as §1, §2, §3, §4

[3] = target: T1, PmrAC (C-terminal domain of PmrA) (Klebsiella pneumoniae, UniProt W9BNR5); assay: Isothermal titration calorimetry (ITC)
T1 sequence (W9BNR5 121-223): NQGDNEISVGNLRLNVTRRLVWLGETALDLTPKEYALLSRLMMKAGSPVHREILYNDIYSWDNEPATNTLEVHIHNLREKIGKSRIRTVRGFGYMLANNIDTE
Description: Isothermal Titration Calorimetry (ITC)
The binding affinities of PmrAC with compound, E1, was estimated by ITC using a MicroCal iTC200 microcalorimeter. The sample of PmrAC was prepared in reaction buffer (20 mM sodium phosphate, 100 mM NaCl, pH6.0). Compounds were also prepared in reaction buffer (E1=0.4 mM) and titrated into PmrAC (45 μM) at 25° C. The background heat generated from compound to buffer titration was subtracted, and the corrected heat form the binding reaction of PmrAC to E1 was used to derive the association constant (Ka), the enthalpy of binding (ΔH), the change in Gibbs free energy (ΔG), and the entropy changes ([…]) at 298K. All the data were analyzed by using Origin ITC Analysis (MicroCal Software, Northampton, Mass., USA).
(§5) The binding affinity of E1 toward PmrAC (C-terminal domain of PmrA) was further assessed by Isothermal titration calorimetry (ITC) and Bio-layer interferometer (BLI) at the condition described previously (Lou et al., Nature communication 2015, 6, 8838.) (sodium phosphate buffer pH6.0). According to the ITC results, the interaction of E1 with PmrAC appeared to be an exothermic reaction, with a change in enthalpy (ΔH) of −21.4 kcal/mol, change in entropy (AS) of −45.6 […], and N value of 1.09 (FIG. 2, panel G).

[4] = target: T1, PmrAC (C-terminal domain of PmrA); assay: NMR (2D 1H-15N TROSY-HSQC) compound titration for dissociation constant
Description: NMR Spectroscopy and Compound Titrations
The preparations of NMR samples were as described previously (Mscielag and Goldschmidt, Expert opinion on investigational drugs 2000, 9, 2351-2369.). Briefly, the activated and inactivated PmrA (0.3 ml, 0.25 mM) were prepared in pH8.0 buffer (20 mM Tris and 100 mM NaCl) with or without BeF3^− activation. PmrAC (0.3 ml, 0.25 mM) was prepared in pH8.0 buffer (20 mM Tris and 100 mM NaCl). All the protein solutions were further loaded in Shigemi NMR tubes (Shigemi Inc.). NMR experiments for activated/inactivated PmrA and PmrAC were conducted at 310 and 298K on Brucker AVANCE 600 or 800 NMR spectrometers (Bruker, Karlsruhe, Germany) equipped with a triple-resonance cryoprobe including a shielded z-gradient. The hetero-nuclear NMR experiments for backbone assignments were performed as described previously in a review article (Garcia-Calderon et al., Journal of Bacteriology 2007, 189, 6635-6644). All the acquired NMR spectra were processed by using NMRPipe (Chen and Groisman, Annual review of microbiology 2013, 67, 83-112) and analyzed with NMRViewJ8.0a.22 (Wosten et al., Molecular microbiology 2006, 60, 39-50). […] The chemical shift changes were calculated through the equation Δδ=[(ΔδNH)^2+(0.17×ΔδN)^2]^0.5, in which ΔδNH and ΔδN are the chemical shift differences for ^1HN and ^15N, respectively. […]

[5] = target: T1, PmrAC (C-terminal domain of PmrA); assay: Bio-layer interferometry (BLI)
Description: Bio-Layer Interferometry (BLI)
The BLI kinetics were obtained by using the ForteBio Octet RED96 instrument (ForteBio, Pall Life Sciences). Recombinant PmrAC carrying C-terminal 6× His tag was immobilized on the HIS1K biosensor in the reaction buffer containing 20 mM sodium phosphate, 100 mM NaCl, pH 6.0 at 25° C. for 180 s prior to kinetic experiment. For the association, the preloading biosensor was exposed to different concentration of E1 (0-37.5 μM) for the period of 300 s. Following the dissociation step, the sensor was subjected to the reaction buffer for 300 s. Kinetic constants, including Kon (association constant, M^−1s^−1) and Koff (dissociation constant, s^−1), were obtained by fitting the reaction model 1:1 kinetics to the reference-subtracted data. The equilibrium dissociation (KD) was calculated as the ratio of Koff to Kon. All calculation was determined using Data Analysis 7 software (ForteBio, Pall Life Sciences).
as §5

PmrA-DNA complex (Klebsiella pneumoniae, UniProt W9BNR5), sequence (W9BNR5 whole entry I220D/W181G, one chain of several): as the sequence (W9BNR5 whole entry I220D/W181G, one chain of several) above

| Structure (SMILES) | IC50 (PmrA-DNA complex [1]) | inhibition at 50 µM (PmrA-DNA complex [2]) | Kd [3] | Kd [4] | Kd [5] | koff ([5]; read-out: Koff rate) | kon ([5]; read-out: Kon rate) |
| --- | --- | --- | --- | --- | --- | --- | --- |
| O=S(=O)(O)CC1CSSCC(CS(=O)(=O)O)SS1 (centres unmarked) [Compound E3] | 100 ± 2.5 µM | 27.4 ± 1.8% |  |  |  |  |  |
| O=S(=O)(O)c1ccc(-c2ncc(-c3ccc(-c4cnc(-c5ccc(S(=O)(=O)O)cc5)o4)cc3)o2)cc1 [Compound E1] | 10.2 ± 2.6 µM | 70.2 ± 3.2% | 1.7 µM | 126 ± 34.6 µM | 2.6 ± 0.1 µM | 0.251 s⁻¹ | 94900 M⁻¹ s⁻¹ |
| O=S(=O)(O)CCOCC1CSSCC(COCCS(=O)(=O)O)SS1 (centres unmarked) [Compound E2] | 42.5 ± 2.9 µM | 55.9 ± 2.7% |  |  |  |  |  |
